# Target: T1, KV10.1 (Homo sapiens, UniProt O95259)
# T1 construct: expressed in transfected cells; host or cells: Xenopus laevis oocytes (cRNA injection)
# T1 sequence (O95259 1-989): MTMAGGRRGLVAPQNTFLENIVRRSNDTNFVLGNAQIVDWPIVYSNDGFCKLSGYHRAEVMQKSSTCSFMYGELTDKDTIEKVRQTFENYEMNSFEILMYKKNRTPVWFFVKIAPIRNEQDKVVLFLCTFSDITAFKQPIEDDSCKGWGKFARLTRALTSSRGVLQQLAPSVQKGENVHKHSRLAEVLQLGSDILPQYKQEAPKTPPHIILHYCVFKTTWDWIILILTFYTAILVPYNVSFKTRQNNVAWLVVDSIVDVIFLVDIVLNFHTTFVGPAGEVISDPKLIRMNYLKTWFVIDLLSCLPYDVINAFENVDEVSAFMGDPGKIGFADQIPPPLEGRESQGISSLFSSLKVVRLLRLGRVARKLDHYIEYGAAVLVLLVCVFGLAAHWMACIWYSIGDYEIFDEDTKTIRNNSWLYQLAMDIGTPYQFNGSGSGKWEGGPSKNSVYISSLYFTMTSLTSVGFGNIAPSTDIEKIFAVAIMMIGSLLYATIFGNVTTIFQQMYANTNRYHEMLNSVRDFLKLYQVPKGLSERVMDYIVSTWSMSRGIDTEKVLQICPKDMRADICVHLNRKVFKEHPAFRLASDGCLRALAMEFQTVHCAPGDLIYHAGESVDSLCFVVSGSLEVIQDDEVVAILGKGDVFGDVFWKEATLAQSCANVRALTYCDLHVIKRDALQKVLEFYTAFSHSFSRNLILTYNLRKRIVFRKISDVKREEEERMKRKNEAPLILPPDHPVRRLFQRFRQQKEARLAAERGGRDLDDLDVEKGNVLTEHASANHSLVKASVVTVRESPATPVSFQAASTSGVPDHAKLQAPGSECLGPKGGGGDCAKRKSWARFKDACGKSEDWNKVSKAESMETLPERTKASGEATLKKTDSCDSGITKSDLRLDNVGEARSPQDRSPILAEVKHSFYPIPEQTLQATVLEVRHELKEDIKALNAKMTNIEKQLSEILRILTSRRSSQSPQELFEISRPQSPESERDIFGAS
# Experiment: Two-electrode voltage-clamp on Xenopus laevis oocytes expressing KV10.1
# Type: cell-based
# Settings: 10 μM, voltage-clamped
# Description: Stage V–VI oocytes were isolated by partial ovariectomy from Xenopus laevis frogs (African clawed frog). Mature female frogs were purchased from CRB Xénopes (Rennes, France) and were housed in the Aquatic Facility (KU Leuven) in compliance with the regulations of the European Union (EU) concerning the welfare of laboratory animals as declared in Directive 2010/63/EU. The use of Xenopus laevis was approved by the Animal Ethics Committee of the KU Leuven (Project nr. P186/2019). After anesthetising the frogs by a 15 min submersion in 0.1% tricaine methanesulphonate (pH 7.0), the oocytes were collected. The isolated oocytes were then washed with a 1.5 mg/mL collagenase solution for 2 h to remove the follicle layer.
# Ion channels (KV10.1 and hERG) were expressed in Xenopus laevis oocytes, by linearisation of the plasmids and subsequent in vitro transcription using a commercial T7 or SP6 mMESSAGE mMACHINE transcription kit (Ambion, Carlsbad, CA, USA). Defolliculated Xenopus oocytes were then injected with 20–50 nL of the cRNA at a concentration of 1 ng/nL using a micro-injector (Drummond Scientific1, Broomall, PA, USA). The oocytes were incubated in a solution containing (in mM): NaCl, 96; KCl, 2; CaCl2, 1.8; MgCl2, 2 and HEPES, 5 (pH 7.4), supplemented with 50 mg/L gentamycin sulphate and […]. After ex vivo translation, the ion channels are correctly inserted in the cell membrane of the oocytes.
# Two-electrode voltage-clamp recordings were performed at room temperature (18–22 °C) using a Geneclamp 500 amplifier (Molecular Devices, San Jose, CA, USA) controlled by a pClamp data acquisition system (Axon Instruments1, Union City, CA, USA) and using an integrated digital TEVC amplifier controlled by HiClamp, an automated Voltage-Clamp Screening System (Multi Channel Systems MCS GmbH, Reutlingen, Germany). Whole-cell currents from oocytes were recorded 1–7 days after injection. The bath solution composition was ND96 (in mM): NaCl, 96; KCl, 2; CaCl2, 1.8; MgCl2, 2 and HEPES, 5 (pH 7.5). Voltage and current electrodes were filled with a 3 M solution of KCl in H2O. Resistances of both electrodes were kept between 0.5 and 1.5 MΩ. The elicited Kv10.1 and hERG currents were filtered at 0.5 kHz and sampled at 2 kHz using a four-pole low-pass Bessel filter. Leak subtraction was performed using a p/4 protocol. Starting from a holding potential of −90 mV, currents for Kv10.1 were evoked by 1 s depolarizing pulses to 0 mV and currents for hERG were evoked by 2.5 s depolarizing prepulses to +40 mV, followed by hyperpolarizing pulses to −120 mV for 2.5 s. The concentration dependency of all compounds was assessed by measuring the current inhibition in the presence of increasing compound concentrations. To this end, a stock solution of the compounds was prepared in 100% DMSO for the sake of solubility. From this stock solution, adequate dilutions with a maximum of 0.5% DMSO were made for testing. The data of the concentration–response curves were fitted with the Hill equation: y = 100/{1 + (IC50/[compound])^h}, where y is the amplitude of the compound- induced effect, IC50 is the compound concentration at half-maximal efficacy, (compound) is the compound concentration, and h is the Hill coefficient.
# All electrophysiological data are presented as means ± SEM of n ≥ 3 independent experiments unless otherwise indicated. Oocyte data were analysed using pClamp Clampfit 10.4 (Molecular Devices, Downingtown, PA, USA) and OriginPro 9 (Originlab, Northampton, MA, USA) or GraphPad Prism 8 software (GraphPad Software, Inc., San Diego, CA, USA). Patch-clamp data analysis was performed using FitMaster (HEKA Electronics), IgorPro (Wavemetrics, Inc., Lake Oswego, OR, USA) and GraphPad Prism 9 (GraphPad Software, Inc., San Diego, CA, USA). The Dunnett test and one-way ANOVA were performed to calculate the significance of the induced inhibition compared to the control (p < 0.05).
row,inhibition at 10 µM [%],SMILES
1,13,"O=C(O)c1ccccc1Nc1ccc(OCC(O)CN2CCOCC2)cc1 (centres unmarked) [Compound 10a, 2-((4-(2-Hydroxy-3-morpholinopropoxy)phenyl)amino)benzoic acid]"
2,39.9,"CNCC(O)COc1ccc(Nc2ccc(C(F)(F)F)cc2[N+](=O)[O-])cc1 (centres unmarked) [Compound 15, 1-(Methylamino)-3-(4-((2-nitro-4-(trifluoromethyl)phenyl)amino)phenoxy)propan-2-ol]"
